Experimental data reported in US5356916A, “1,2,4-oxadiazole derivatives having monoamine oxidase B enzyme-inhibitory activity” (Wakamoto Pharmaceutical Co., Ltd., priority 1991, dated 1994).
pIC50: −log10 of the molar value. Read-outs that look alike come from different tables or passages of the source.

Assays:
[1] = biological target: T1, MAO-B (Rattus norvegicus, UniProt P19643); test: In vitro inhibition of monoamine oxidase B (oxygen electrode, rat liver mitochondria, substrate benzylamine); assay type: biochemical; details: for MAO-A/MAO-B: ratio of IC50 values MAO-A/MAO-B
T1 construct: mitochondria prepared from the liver of rats; from tissue; host or cells: rat liver mitochondria
T1 sequence (P19643 1-520): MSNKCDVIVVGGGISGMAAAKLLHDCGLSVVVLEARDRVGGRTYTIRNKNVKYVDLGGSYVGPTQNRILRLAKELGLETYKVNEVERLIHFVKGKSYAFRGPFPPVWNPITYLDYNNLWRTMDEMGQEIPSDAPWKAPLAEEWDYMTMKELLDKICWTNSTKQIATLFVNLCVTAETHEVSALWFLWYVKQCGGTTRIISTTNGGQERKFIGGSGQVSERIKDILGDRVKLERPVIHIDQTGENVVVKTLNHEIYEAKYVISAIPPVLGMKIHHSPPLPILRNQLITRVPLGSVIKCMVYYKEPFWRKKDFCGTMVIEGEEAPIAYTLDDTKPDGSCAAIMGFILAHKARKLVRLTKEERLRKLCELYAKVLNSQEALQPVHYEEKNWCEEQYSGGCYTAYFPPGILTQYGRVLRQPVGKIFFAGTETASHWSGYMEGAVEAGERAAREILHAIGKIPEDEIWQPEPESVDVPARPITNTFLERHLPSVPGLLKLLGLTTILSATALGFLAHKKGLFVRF
Method: (§1) The MAO-inhibitory activity of the compounds of the present invention was determined according to an MAO-inhibitory activity determining method using the oxygen electrode disclosed in K. F. Tipton et al., Biochem. J., 1968,108, pp. 95-99.
(§2) A potassium phosphate buffer solution of mitochondria prepared from the liver of rats was preincubated at 37° C. with or without a compound of the present invention and then a substrate was added to the mixture to thus initiate the reaction at that temperature while the dissolved oxygen-consuming reaction due to MAO activity in the reaction solution was monitored by the oxygen electrode. In this respect, the substrates used were serotonin (5-HT) for the MAO-A activity determination and benzylamine (BA) for the MAO-B activity determination. The MAO-inhibitory activity was evaluated in terms of an IC5.sbsb.0 value which is the concentration of a compound tested required for reducing the rate of oxygen-consuming reaction performed in the presence of the compound to 50% of that of the reaction performed in the absence of the compound.

[2] = biological target: T2, MAO-A (Rattus norvegicus, UniProt P21396); test: In vitro inhibition of monoamine oxidase A (oxygen electrode, rat liver mitochondria, substrate serotonin); assay type: biochemical
T2 construct: mitochondria prepared from the liver of rats; from tissue; host or cells: rat liver mitochondria
T2 sequence (P21396 1-526): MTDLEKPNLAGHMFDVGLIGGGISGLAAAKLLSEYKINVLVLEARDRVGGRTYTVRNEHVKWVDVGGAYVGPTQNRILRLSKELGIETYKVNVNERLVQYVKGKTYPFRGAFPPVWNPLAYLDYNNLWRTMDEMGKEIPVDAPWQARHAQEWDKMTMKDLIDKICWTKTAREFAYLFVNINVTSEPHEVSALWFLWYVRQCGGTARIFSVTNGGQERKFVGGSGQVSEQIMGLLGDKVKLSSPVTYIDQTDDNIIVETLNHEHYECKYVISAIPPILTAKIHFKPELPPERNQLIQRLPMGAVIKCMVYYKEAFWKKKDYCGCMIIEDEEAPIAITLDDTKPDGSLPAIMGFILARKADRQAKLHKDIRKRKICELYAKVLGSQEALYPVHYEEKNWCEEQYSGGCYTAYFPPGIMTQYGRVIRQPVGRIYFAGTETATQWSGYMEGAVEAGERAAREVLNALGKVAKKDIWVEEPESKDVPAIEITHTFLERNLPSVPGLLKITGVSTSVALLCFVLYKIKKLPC
Method: as §1, §2

[3] = rat liver mitochondria, 37° C., preincubated, substrate benzylamine (BA), read-out: IC50 MAO-B
[4] = rat liver mitochondria, 37° C., preincubated, substrate serotonin (5-HT), read-out: IC50 MAO-A

pIC50 [1, 3]	MAO-A/MAO-B [1]	pIC50 [2, 4]	Compound	pIC50 [1]	pIC50 [2]
6.00	200	3.70	CCCc1nc(-c2ccc(OCCCn3ccnc3)cc2)no1 [Example 3, 3-[4-[3-(1H-imidazol-1-yl)propoxy]phenyl]-5-propyl-1,2,4-oxadiazole]		
4.70	5	4.00	CCc1nc(-c2ccc(OCCCc3cccnc3)cc2)no1 [Example 14, 3-[4-[3-(3-pyridyl)propoxy]phenyl]-5-ethyl-1,2,4-oxadiazole]		
4.00	1	4.00	CCc1nc(-c2ccc(OCCCN3CCN(C)CC3)cc2)no1 [Example 13, 3-[4-[3-(4-methylpiperazinyl)propoxy]phenyl]-5-ethyl-1,2,4-oxadiazole]		
4.00	1	4.00	O=C1CCCN1CCCOc1ccc(-c2noc(-c3ccccc3)n2)cc1 [Example 17, 3-[4-[3-(2-oxopyrrolidin-1-yl)propoxy]phenyl]-5-phenyl-1,2,4-oxadiazole]		
5.10	13	4.00	CCc1nc(-c2ccc(OCc3ccccc3)cc2)no1 [Example 19, 3-(4-benzyloxy)phenyl-5-ethyl-1,2,4-oxadiazole]		
7.05	1100	4.00	FC(F)(F)C(F)(F)c1nc(-c2ccc(OCCCn3ccnc3)cc2)no1 [Example 22, 3-[4-[3-(1H-imidazol-1-yl)propoxy]phenyl]-5-penta-fluoroethyl-1,2,4-oxadiazole]		
4.30	2	4.00	c1ccc(-c2nc(-c3ccc(OCCCn4ccnc4)cc3)no2)cc1 [Example 5, 3-[4-[3-(1H-imidazol-1-yl)propoxy]phenyl]-5-phenyl-1,2,4-oxadiazole]		
4.52	3.3	4.00	Cc1nc(-c2ccc(OCc3cccnc3)cc2)no1 [Example 26, 3-(4-(3-pyridylmethyloxy)phenyl]-5-methyl-1,2,4-oxadiazole]		
5.00	4.8	4.32	CCCOc1ccc(-c2noc(CC)n2)cc1 [Example 16, 3-(4-propoxy)phenyl-5-ethyl-1,2,4-oxadiazole]		
4.22	1.5	4.05	CCc1nc(-c2ccc(OCCn3ccnc3)cc2)no1 [Example 18, 3-[4-[2-(1H-imidazol-1-yl)ethoxy]phenyl]-5-ethyl-1,2,4-oxadiazole]		
5.52	67	3.70	Cc1nc(-c2ccc(OCc3cccc(Cl)c3)cc2)no1 [Example 31, 3-[4-(3-chlorobenzyloxy)phenyl]-5-methyl-1,2,4-oxadiazole]		
4.60	0.7	4.74	CCCOc1ccc(-c2noc(C)n2)cc1 [Example 28, 3-(4-propoxy)phenyl-5-methyl-1,2,4-oxadiazole]		
4.00	1	4.00	CCc1nc(-c2ccc(OCCCN3CCCCC3)cc2)no1 [Example 12, 3-[4-(3-piperidinopropoxy)phenyl]5-ethyl-1,2,4-oxadiazole]		
6.52	670	3.70	CCc1nc(-c2ccc(OCCCn3ccnc3)cc2)no1 [Example 1, 3-[4-[3-(1H-imidazol-1-yl)propoxy]phenyl]-5-ethyl-1,2,4-oxadiazole]		
4.60	6.4	3.80	Cc1nc(-c2ccc(OCc3ccncc3)cc2)no1 [Example 27, 3-[4-(4-pyridylmethyloxy)phenyl]-5-methyl-1,2,4-oxadiazole]		
5.32	10	4.30	Cc1nc(-c2ccc(OCc3ccccc3)cc2)no1 [Example 30, 3=(4-benzyloxy)phenyl-5-methyl-1,2,4-oxadiazole]		
5.62	230	3.26	Cc1nc(-c2ccc(OCCCn3ccnc3)cc2)no1 [Example 24, 3-[4-[3-(1H-imidazol-1-yl)propoxy]phenyl]-5-methyl-1,2,4-oxadiazole]		
4.00	2	3.70	CCc1nc(-c2ccc(OCCCN3CCOCC3)cc2)no1 [Example 11, 3-[4-(3-morpholinopropoxy)phenyl]-5-ethyl-1,2,4-oxadiazole]		
5.92	92	3.96	CNc1nc(-c2ccc(OCCCn3ccnc3)cc2)no1 [Example 32, 3-[4-[3-(1H-imidazol-1-yl)propoxy]phenyl]-5-methyl-amino-1,2,4-oxadiazole]		
3.80	0.9	3.82	CCc1nc(-c2ccc(OCCCn3cnc4ccccc43)cc2)no1 [Example 7, 3-[4-[3-(1H-benzimidazol-1-yl)propoxy]phenyl]-5-ethyl-1,2,4-oxadiazole]		
7.52	6700	3.70	FC(F)(F)c1nc(-c2ccc(OCCCn3ccnc3)cc2)no1 [Example 21, 3-[4-[3-(1H-imidazol-1-yl)propoxy]phenyl]-5-trifluoromethyl-1,2,4-oxadiazole]		
5.70	50	4.00	c1cn(CCCOc2ccc(-c3noc(C4CC4)n3)cc2)cn1 [Example 4, 3-[4-[3-(1H-imidazol-1-yl)propoxy]phenyl]-5-cyclo-propyl-1,2,4-oxadiazole]		
4.60	4	4.00	CCc1nc(-c2ccc(OCCCN(CC)CC)cc2)no1 [Example 8, 3-[4-(3-diethylaminopropoxy)phenyl]-5-ethyl-1,2,4-oxadiazole]		
3.70	1	3.70	CCc1nc(-c2ccc(OCCCc3ccccc3)cc2)no1 [Example 15, 3-[4-(3-phenylpropoxy)phenyl]-5-ethyl-1,2,4-oxadiazole]		
4.66	5	3.96	Cc1nc(-c2ccc(OCCCc3ccccc3)cc2)no1 [Example 29, 3-[4-(3-phenylpropoxy)phenyl]-5-methyl-1,2,4-oxadiazole]		
6.00	100	4.00	CCCN(CCC)CCCOc1ccc(-c2noc(C)n2)cc1 [Example 25, 3-[4-(3-dipropylaminopropoxy)phenyl]-5-methyl-1,2,4-oxadiazole]		
4.30	2	4.00	CCCN(CCC)CCCOc1ccc(-c2noc(-c3ccccc3)n2)cc1 [Example 9, 3-[4-(3-dipropylaminopropoxy)phenyl]-5-phenyl-1,2,4-oxadiazole]		
5.15	14	4.00	CNc1nc(-c2ccc(OCc3ccccc3)cc2)no1 [Example 33, 3-(4-benzyloxyphenyl)-5-methylamino-1,2,4-oxadiazole]		
4.00	1	4.00	CCc1nc(-c2ccc(OCCCN3C(=O)c4ccccc4C3=O)cc2)no1 [Example 10, 3-[4-(3-phthalimidopropoxy)phenyl]-5-ethyl-1,2,4-oxadiazole]		

Compound	pIC50 [1, 3]	MAO-A/MAO-B [1]	pIC50 [2, 4]	pIC50 [1]	pIC50 [2]
ClC(Cl)(Cl)c1nc(-c2ccc(OCc3ccccc3)cc2)no1 [Example 20, 3-(4-benzyloxy)phenyl-5-trichloromethyl-1,2,4-oxadiazole]		11		5.02	4.00
FC(F)(F)C(F)(F)C(F)(F)c1nc(-c2ccc(OCCCn3ccnc3)cc2)no1 [Example 23, 3-[4-[3-(1H-imidazol-1-yl)propoxy]phenyl]-5-hepta-fluoropropyl-1,2,4-oxadiazole]		21		5.33	4.00
